The source of these data is PubChem BioAssay AID330 (DTP/NCI, 2004).

In the assay the test system is P388 leukemia ip, CD2F1 mice, survival T/C. The experiment in a line: NCI In Vivo Anticancer Drug Screen. Data for tumor model P388 Leukemia (intraperitoneal) in CD2F1 (CDF1) mice. To be noted: endpoint: median survival time, higher = longer survival. The procedure, abridged:
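Mice carrying the transplanted tumor received test compound or vehicle. Survival was recorded in each group, and the value is the treated-group measurement divided by that of the vehicle-treated control group.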

Where [1] appears, read: dose: 100.0 mg/kg/injection, schedule: Q01DX009 (ip), vehicle: saline with Tween-80.
Setting [2] is: dose: 100.0 mg/kg/injection, schedule: Q04DX003 (ip), vehicle: saline.
Setting [3] is: dose: 200.0 mg/kg/injection, schedule: Q01DX009 (ip), vehicle: saline with Tween-80.
The mark [4] stands for this setting: dose: 200.0 mg/kg/injection, schedule: Q04DX003 (ip), vehicle: saline.
Where [5] appears, read: dose: 400.0 mg/kg/injection, schedule: Q01DX009 (ip), vehicle: saline with Tween-80.
[6] abbreviates: dose: 50.0 mg/kg/injection, schedule: Q01DX009 (ip), vehicle: Klucel (hydroxypropylcellulose) (HPC).
The mark [7] stands for this setting: dose: 100.0 mg/kg/injection, schedule: Q01DX009 (ip), vehicle: Klucel (hydroxypropylcellulose) (HPC).
[8] abbreviates: dose: 100.0 mg/kg/injection, schedule: Q04DX003 (ip), vehicle: saline with Tween-80.
Where [9] appears, read: dose: 200.0 mg/kg/injection, schedule: Q04DX003 (ip), vehicle: saline with Tween-80.
Setting [10] is: dose: 400.0 mg/kg/injection, schedule: Q04DX003 (ip), vehicle: saline with Tween-80.
Setting [11] is: dose: 50.0 mg/kg/injection, schedule: Q01DX005 (ip), vehicle: Klucel (hydroxypropylcellulose) (HPC).
The mark [12] stands for this setting: dose: 100.0 mg/kg/injection, schedule: Q01DX005 (ip), vehicle: Klucel (hydroxypropylcellulose) (HPC).
Where [13] appears, read: dose: 200.0 mg/kg/injection, schedule: Q01DX005 (ip), vehicle: Klucel (hydroxypropylcellulose) (HPC).
Setting [14] is: dose: 100.0 mg/kg/injection, schedule: Q04DX002 (ip), vehicle: saline.
The mark [15] stands for this setting: dose: 200.0 mg/kg/injection, schedule: Q04DX002 (ip), vehicle: saline.
Setting [16] is: dose: 400.0 mg/kg/injection, schedule: Q04DX002 (ip), vehicle: saline.
Where [17] appears, read: dose: 60.0 mg/kg/injection, schedule: Q01DX005 (ip), vehicle: saline with Tween-80.
Where [18] appears, read: dose: 120.0 mg/kg/injection, schedule: Q01DX005 (ip), vehicle: saline with Tween-80.
Setting [19] is: dose: 240.0 mg/kg/injection, schedule: Q01DX005 (ip), vehicle: saline with Tween-80.
Where [20] appears, read: dose: 50.0 mg/kg/injection, schedule: Q04DX003 (ip), vehicle: saline with Tween-80.

Values joined by “and” are separate entries in the source; they are usually repeats but may differ in a detail not shown here. Identical values can stand only once. Inconclusive results and toxic doses are left out.

Consider `CC(=O)OCc1ccc(Cl)cc1`, for which the T/C (dose: 50.0 mg/kg/injection, schedule: Q01DX009 (ip), vehicle: saline with Tween-80) is 99 % of control; the T/C (dose: 50.0 mg/kg/injection, schedule: Q04DX003 (ip), vehicle: saline) was 100 % of control; the T/C under setting [1] was 99 % of control; the T/C under setting [2] is 104 % of control; the T/C under setting [3] is 114 % of control; the T/C under setting [4] was 113 % of control. The T/C under setting [5] is 123 % of control.
Take `O=C(NCCCN1CCOCC1)Nc1ccc(Cc2ccc(NC(=O)NCCCN3CCOCC3)cc2)cc1`: the T/C runs as follows: under setting [6], 94 % of control; under setting [7], 94 % of control; (dose: 200.0 mg/kg/injection, schedule: Q01DX009 (ip), vehicle: Klucel (hydroxypropylcellulose) (HPC)) 94 % of control.
For the molecule `C[C@]12C=CC(=O)C=C1CC[C@H]1[C@@H]3CCC(=O)O[C@@]3(C)CC(=O)[C@@]12F`, the T/C by setting is: under setting [8], 91 % of control; under setting [9], 95 % of control; under setting [10], 100 % of control.
In the case of `CCCCCCCNN=NCC(C)C(C)CC` (configuration not stated), the T/C under setting [2] is 95 % of control; the T/C under setting [4] is 95 % of control; the T/C (dose: 400.0 mg/kg/injection, schedule: Q04DX003 (ip), vehicle: saline) is 97 % of control.
For the molecule `COc1ccc(/C=C/C(=O)c2ccccc(=O)c2O)cc1OC`, the T/C (dose: 25.0 mg/kg/injection, schedule: Q01DX005 (ip), vehicle: Klucel (hydroxypropylcellulose) (HPC)) was 99 % of control; the T/C under setting [11] was 100 % of control; the T/C under setting [12] is 114 % of control; the T/C under setting [13] is 113 % of control.
For `CC(C)C(N)C(=O)Nc1nncs1` (configuration not stated), the T/C is, setting by setting: under setting [14], 106 % of control; under setting [15], 183 % of control; under setting [16], 157 % of control and 190 % of control; (dose: 600.0 mg/kg/injection, schedule: Q04DX002 (ip), vehicle: saline) 171 % of control.
Consider `C=CCCCN1C(=O)CCCC1=O`, for which the T/C runs as follows: under setting [17], 100 % of control; under setting [18], 101 % of control; under setting [19], 101 % of control.
Regarding `O=P(O/C(=C\c1ccccc1)c1ccccc1)(c1ccccc1)c1ccccc1`, the T/C was 91 % of control (dose: 60.0 mg/kg/injection, schedule: Q01DX005 (ip), vehicle: Klucel (hydroxypropylcellulose) (HPC)); 90 % of control (dose: 120.0 mg/kg/injection, schedule: Q01DX005 (ip), vehicle: Klucel (hydroxypropylcellulose) (HPC)); 90 % of control (dose: 240.0 mg/kg/injection, schedule: Q01DX005 (ip), vehicle: Klucel (hydroxypropylcellulose) (HPC)).
As to `Cc1ccc(C2(COC(=O)c3ccccc3)CO2)c(OC(=O)C(C)C)c1` (configuration not stated), the T/C reads like this: (dose: 12.5 mg/kg/injection, schedule: Q01DX009 (ip), vehicle: Klucel (hydroxypropylcellulose) (HPC)) 99 % of control; (dose: 25.0 mg/kg/injection, schedule: Q01DX009 (ip), vehicle: Klucel (hydroxypropylcellulose) (HPC)) 95 % of control; under setting [6], 107 % of control; under setting [7], 105 % of control.
Take `Nc1nc2c(c(-c3nc(N)nc4c3Cc3ccccc3-4)n1)Cc1ccccc1-2`: the T/C is, setting by setting: under setting [17], 98 % of control; under setting [18], 100 % of control.
In the case of `Cc1ccc(-[n+]2c3cc(N)c(C)cc3nc3cc(C)c(Nc4ccccc4)cc32)cc1`, the T/C runs as follows: (dose: 25.0 mg/kg/injection, schedule: Q01DX005 (ip), vehicle: saline + Tween-80 + alcohol) 109 % of control; (dose: 25.0 mg/kg/injection, schedule: Q01DX005 (ip), vehicle: saline with Tween-80) 101 % of control; (dose: 50.0 mg/kg/injection, schedule: Q01DX005 (ip), vehicle: saline + Tween-80 + alcohol) 116 % of control; (dose: 50.0 mg/kg/injection, schedule: Q01DX005 (ip), vehicle: saline with Tween-80) 119 % of control and 122 % of control; (dose: 100.0 mg/kg/injection, schedule: Q01DX005 (ip), vehicle: saline with Tween-80) 119 % of control and 122 % of control; (dose: 200.0 mg/kg/injection, schedule: Q01DX005 (ip), vehicle: saline with Tween-80) 119 % of control.
Take `COC(=O)NC(=S)Nc1nnc(C)s1`: the T/C was 103 % of control (dose: 25.0 mg/kg/injection, schedule: Q04DX003 (ip), vehicle: saline with Tween-80); 256 % of control under setting [20]; 105 % of control under setting [8].
For `Cc1cc(C=C2C(=O)c3ccccc3C2=O)cc(C(C)(C)C)c1O`, the T/C under setting [14] was 100 % of control, the T/C under setting [15] is 100 % of control and the T/C under setting [16] is 97 % of control.
Regarding `CC(=O)OCC(=O)[C@@]1(O)CC[C@H]2[C@@H]3C[C@@H](C)C4=CC(=O)C=C[C@]4(C)[C@H]3[C@@H](O)C[C@@]21C`, the T/C is, setting by setting: under setting [1], 100 % of control; under setting [3], 100 % of control; under setting [5], 100 % of control.
For the molecule `Cn1nc(-c2ccc(Cl)c(Cl)c2)[n+]([O-])c2c(=O)n(C)c(=O)nc1-2`, the T/C was 120 % of control (dose: 6.25 mg/kg/injection, schedule: Q01DX009 (ip), vehicle: saline with Tween-80); 110 % of control and 115 % of control (dose: 12.5 mg/kg/injection, schedule: Q01DX009 (ip), vehicle: saline with Tween-80).
In the case of `CC(=O)NC(CCl)(OC(C)=O)C(=O)OCc1ccc([N+](=O)[O-])cc1` (configuration not stated), the T/C was 102 % of control (dose: 12.5 mg/kg/injection, schedule: Q01DX001 (ip), vehicle: Klucel (hydroxypropylcellulose) (HPC)); 108 % of control (dose: 25.0 mg/kg/injection, schedule: Q01DX001 (ip), vehicle: Klucel (hydroxypropylcellulose) (HPC)); 100 % of control (dose: 50.0 mg/kg/injection, schedule: Q01DX001 (ip), vehicle: Klucel (hydroxypropylcellulose) (HPC)); 106 % of control under setting [8]; 120 % of control under setting [9]; 100 % of control under setting [10].
Consider `O=C(NCCCCCCNC(=O)C12CC3CC(CC(C3)C1)C2)C12CC3CC(CC(C3)C1)C2`, for which the T/C runs as follows: under setting [11], 92 % of control; under setting [12], 92 % of control; under setting [13], 90 % of control.
As for `COC1=C(OC)C(=O)C(SCCCCCCC2CCCCC2)=CC1=O`, the T/C was 96 % of control (dose: 16.0 mg/kg/injection, schedule: Q01DX009 (ip), vehicle: Klucel (hydroxypropylcellulose) (HPC)) and 92 % of control (dose: 32.0 mg/kg/injection, schedule: Q01DX009 (ip), vehicle: Klucel (hydroxypropylcellulose) (HPC)).
As for `Cc1cc(C)cc(C(N)=O)c1`, the T/C reads like this: under setting [2], 96 % of control; under setting [4], 99 % of control.
For the molecule `Cc1ccc(S(=O)(=O)N/N=C/c2cc([N+](=O)[O-])cc(I)c2O)cc1`, the T/C by setting is: (dose: 12.5 mg/kg/injection, schedule: Q01DX005 (ip), vehicle: distilled water + Tween-80) 102 % of control; (dose: 25.0 mg/kg/injection, schedule: Q01DX005 (ip), vehicle: distilled water + Tween-80) 109 % of control; (dose: 50.0 mg/kg/injection, schedule: Q01DX005 (ip), vehicle: distilled water + Tween-80) 98 % of control and 112 % of control; (dose: 100.0 mg/kg/injection, schedule: Q01DX005 (ip), vehicle: distilled water + Tween-80) 98 % of control and 102 % of control; (dose: 200.0 mg/kg/injection, schedule: Q01DX005 (ip), vehicle: distilled water + Tween-80) 122 % of control and 95 % of control; (dose: 400.0 mg/kg/injection, schedule: Q01DX005 (ip), vehicle: distilled water + Tween-80) 93 % of control.
For `COc1cc(/C=N\Nc2ccccc2[N+](=O)[O-])cc(OC)c1OC`, the T/C reads like this: under setting [8], 87 % of control; under setting [9], 87 % of control; under setting [10], 91 % of control.
Consider `COc1cc(C=Nc2cccc(C(=O)O)c2)ccc1N(CCCl)CCCl`, for which the T/C by setting is: (dose: 25.0 mg/kg/injection, schedule: Q01DX009 (ip), vehicle: saline) 122 % of control; under setting [20], 150 % of control; (dose: 66.0 mg/kg/injection, schedule: Q04DX003 (ip), vehicle: saline with Tween-80) 272 % of control; under setting [8], 181 % of control.
`CCCOC1NC(=O)Oc2ccccc21` (configuration not stated): the T/C is, setting by setting: under setting [17], 101 % of control and 104 % of control and 106 % of control; under setting [18], 104 % of control and 111 % of control and 117 % of control; under setting [19], 114 % of control and 117 % of control.
